{
  "source": "patent US20110105380A1",
  "about": "“Protection of Nano-Scale Particles from Immune Cell Uptake” (THE TRUSTEES OF THE UNIVERSITY OF PENNSYLVANIA, priority 2009, published 2011)",
  "system": "THP-1 macrophages",
  "test": "Phagocytosis of IgG-opsonized streptavidin beads with or without hCD47 by THP-1 macrophages",
  "format": "cell-based, human",
  "procedure": "The extracellular immunoglobulin-like domains of human CD47 (hCD47) was recombinantly expressed with a spacer domain (Brown et al., 1994, Protein Eng. 7:515-21; Brown et al., 1998, J. Exp. Med. 188:2083-90) plus a C-terminal biotinylation site. […] The beads were opsonized by pretreatment with anti-streptavidin to again induce FcR-mediated phagocytosis (for 45 minutes at 37° C.), and non-engulfed beads were detected with a flourescein anti-Fc against the IgG-opsonin. The number of adherent IgG-opsonized beads per phagocyte was independent of hCD47 (not shown).\nFor phagocytosis assays, macrophages were plated in 4 cm^2, or 2 cm^2 Lab-Tek II Chambered Coverglass (Nalge Nunc International, Naperville, Ill.) at 1.5×10^5/cm^2. Streptavidin polystyrene beads of different radius: 3.5 μm, 1.1 μm, 160 nm (Spherotech) and 100 nm (Ademtech) were added to macrophages at a ratio of 2:1, 20:1, 277:1, and 2206:1 respectively and incubate at 37° C. for 45 min. […] Non-phagocytosed beads were washed with PBS. Cells were fixed with 5% formaldehyde (Fisher Scientific) for 5 minutes, followed by immediate replacement with PBS. For differentiation of non-internalized beads, beads were labeled with a primary antibody, rabbit anti-streptavidin (Sigma) at 1:1000 in PBS for 20 min at 25° C. A second antibody, anti-rabbit R-PE (Sigma) was added at 1:1000 in PBS to the cells and incubated for an additional 20 minutes at 25° C. Cells were then washed with PBS/0.4% BSA and then quantified by light and fluorescent microscopy. At least 200 cells were scored per well and experiments were repeated at least three times.\nFor stimulated phagocytosis assays, beads with or without CD47 were incubated with rabbit anti-streptavidin as the IgG opsonin. Beads were opsonized at a concentration 1:1000 for 30 min at 25° C. Opsonized beads were washed 2× and resuspended in 50 μl of PBS/0.4% BSA. Phagocytes were washed with PBS and uningested beads were labeled as described above.\nFor cytoskeletal involvement at the phagocytic synapse, streptavidin beads opsonized with rabbit anti-streptavidin FITC. Opsonized beads of different sizes were added to THP-1 cells, PMA treated and immediately placed at 4° C. for 10 min to synchronize phagocytosis. […] For studies involving blebbistatin (EMD Biosciences), macrophages were treated for 10 min at 4° C. prior to temperature increase to 37° C. or for 45 min and 37° C. Macrophages treated with DMSO were used to verify no solvent effects.\nBeads were opsonized at saturating densities of IgG, and over a 20-fold range of CD47 densities, the number of internalized beads per THP-1 was measured. […] The normal level of CD47 density found on human RBC (Subramanian et al., 2006, Blood 107(6):2548-2556) was indicated by the vertical bars and humans with certain Rhnull phenotypes with reduced levels of CD47 (Mouro-Chanteloup et al., 2003, Blood 101 (1):338-344; Arndt et al., 2004, Br. J. Haematol. 125(3):412-4) was indicated by the vertical bars. The minimum number of CD47 inhibition appears to be consistent across a 30-fold particle size range as depicted by the vertical bars.",
  "data": [
    {"compound": "Cc1ccc2c(c1)C(=O)C1(O)CCN(c3ccccc3)C1=N2", "note": "(stereo not drawn) [blebbistatin]", "values": [
      {"measurement": "uptake of 100 nm IgG-opsonized particles", "setting": "THP-1 treated with 50 μM blebbistatin vs DMSO", "value": "decrease in uptake"},
      {"measurement": "phagocytosis of CD47-null beads", "setting": "blebbistatin 50 μM, 10 min pretreatment of THP-1", "value": "inhibited phagocytosis of CD47-null beads to a level similar as hCD47 beads"},
      {"measurement": "uptake of 1.1 μm IgG-opsonized particles", "setting": "blebbistatin treatment, FIG. 16D", "value": "comparable results"}
    ]}
  ]
}
